In assay [1] the target is T1, human serotonin 5-HT2c receptor (Homo sapiens, UniProt P28335).
T1 construct: expressed in transfected cells; host or cells: CHO cells (membrane homogenate)
T1 sequence (P28335 33-458): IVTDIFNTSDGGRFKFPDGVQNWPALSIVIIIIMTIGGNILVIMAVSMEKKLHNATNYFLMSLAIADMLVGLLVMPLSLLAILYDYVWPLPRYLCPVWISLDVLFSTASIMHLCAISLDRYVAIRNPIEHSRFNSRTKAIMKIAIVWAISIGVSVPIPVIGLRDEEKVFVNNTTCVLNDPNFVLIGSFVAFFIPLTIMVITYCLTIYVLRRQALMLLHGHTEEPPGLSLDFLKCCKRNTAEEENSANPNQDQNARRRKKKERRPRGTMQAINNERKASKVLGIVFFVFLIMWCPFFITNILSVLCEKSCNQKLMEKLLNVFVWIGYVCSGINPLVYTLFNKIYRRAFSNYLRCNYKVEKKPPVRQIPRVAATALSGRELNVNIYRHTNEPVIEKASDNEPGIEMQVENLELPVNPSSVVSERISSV
Briefly: Human 5-HT2C receptor radioligand binding assay (agonist site, [125I](±)DOI). The settings on record: membranes of transfected CHO cells, 0.2 nM [125I](±)DOI, 15 minutes at 37° C. The gist of the method:
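Affinity for the agonist site measured by radioligand binding in transfected CHO cells expressing the human receptor, using [125I](±)DOI.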

The next assay deals with T2, h-5-HT6 receptor (Homo sapiens, UniProt P50406).
T2 construct: expressed in transfected cells; host or cells: HEK293 cells (membrane preparation)
Put plainly: Human 5-HT6 receptor radioligand binding assay ([3H]-LSD, HEK293 membranes). The settings on record: HEK293 membranes, 1 nM [3H]-lysergic acid diethylamide, 3.5 hours at room temperature; read-out: Ki (μM), 5-HT6 Agonist Site Radioligand Binding. As for the experimental part:
(iv) Human 5-HT6 Receptor Radioligand Binding Assay
Preparation of Membranes by Ultrasonic Treatment and Differential Centrifugation
Cells from stable clonal cell lines expressing the corresponding receptor (5-HT6) were washed with PBS (without Ca^++, Mg^++) and harvested in PBS with 0.02% EDTA. The cells were collected by centrifugation at 500 g for 10 minutes at 4° C., washed with PBS and centrifuged (500 g, 10 minutes at 4° C.). The pellets were stored at −80° C. until use. For membrane preparation, the thawed cell pellet was resuspended in ice-cold sucrose buffer (0.25 M sucrose, 10 mM HEPES (pH 7.4), 1 mM phenylmethylsulfonyl fluoride (PMSF) in DMSO, 5 μg/ml Pepstatin-A, 3 mM EDTA, 0.025% Bacitracin) and homogenized with a Branson Sonifier W-250 (Settings: Timer 4; Output Control 3; Duty Cycle constant; 2 to 3 cycles). Cell disruption was checked with the aid of a microscope. Remaining unbroken cells were pelleted at 1,000 g for 10 minutes at 4° C. The sucrose buffer supernatant was then centrifuged at 60,000 g for 1 hour at 4° C. (Beckman Ultrazentrifuge XL 80). The pellet was resuspended in 30 mL of ice-cold Tris buffer (20 mM TRIS (pH 7.4), 5 μg/mL Pepstatin A, 0.1 mM PMSF, 3 mM EDTA) by pipetting through a 10 mL serological pipet and centrifuged for 1 hour at 4° C. at 60,000 g. A final resuspension was performed in a small volume of ice-cold Tris buffer (see above) by pressing through a serological pipet followed by ultrasonic treatment with a Branson Sonifier W-250 (Settings: Timer 1; Output Control 3; Duty Cycle constant; 1 cycle). Protein concentration was determined (BCA-Kit; Pierce) and aliquots stored at −80° C. or in liquid nitrogen for long-term storage.
Receptor Binding Experiments
All receptor binding experiments were carried out in the corresponding assay buffer in a total volume of 200 μL in the presence of various concentrations of test compound (10^−5 M to 10^−9 M, tenfold serial dilution, duplicate determinations). The assays were terminated by filtration on polyethylenimine (PEI 0.1% or 0.3%) presoaked Packard Unifilter Plates (GF/C or GF/B) with a Tomtec MachIII U 96 well-plate harvester. After the plates had been dried for 2 hours at 55° C. in a drying chamber scintillation cocktail (BetaPlate Scint; PerkinElmer) was added. Radioactivity was measured in a Microbeta Trilux two hours after the addition of the scintillation mixture.
5-HT6 Receptor Binding Assay
HEK293 cells stably expressing the h-5-HT6 receptor (NCBI Reference Sequence XM 001435) were cultured in RPMI1640 medium supplemented with 25 mM HEPES, 10% fetal calf serum and 1-2 mM glutamine. The membrane preparation was performed as described above. […] On the day of the assay, the membranes were thawed, diluted in assay buffer (50 mM Tris-HCl, 5 mM CaCl2, 0.1% ascorbic acid, 10 μM pargyline, pH 7.4) to a concentration of 8 μg protein/assay and homogenized by gentle vortexing. […] Non-specific binding was defined with 1 μM methiothepin. The binding reaction was carried out for 3.5 hours at room temperature. During the incubation, the plates were shaken on a plate shaker at 100 rpm and terminated by filtration on Packard Unifilter GF/C (0.1% PEI) plates, followed by 2 wash cycles with ice-cold 50 mM Tris-HCl, 5 mM CaCl2.
Data derived from liquid scintillation counting were analyzed by iterative non-linear regression analysis with the use of the Statistical Analysis System (SAS): a program similar to “LIGAND” as described by Munson and Rodbard (Anal. Biochem. 1980, 107, 220-239). Fitting was performed according to formulae described by Feldman (Anal. Biochem. 1972, 48, 317-338). IC50, nH and Ki values were expressed as geometrical mean.
The results of the receptor binding studies are expressed as receptor binding constants Ki(5-HT6) as described herein before, and given in Table 5.

Here are results for 1 molecule from patent US8546377B2 (AbbVie Inc., priority 2009, dated 2013).

The term Ki denotes a measure of affinity in units of concentration, obtained from inhibition or displacement.

The structures appear in SMILES notation.

T2 sequence (P50406 whole entry): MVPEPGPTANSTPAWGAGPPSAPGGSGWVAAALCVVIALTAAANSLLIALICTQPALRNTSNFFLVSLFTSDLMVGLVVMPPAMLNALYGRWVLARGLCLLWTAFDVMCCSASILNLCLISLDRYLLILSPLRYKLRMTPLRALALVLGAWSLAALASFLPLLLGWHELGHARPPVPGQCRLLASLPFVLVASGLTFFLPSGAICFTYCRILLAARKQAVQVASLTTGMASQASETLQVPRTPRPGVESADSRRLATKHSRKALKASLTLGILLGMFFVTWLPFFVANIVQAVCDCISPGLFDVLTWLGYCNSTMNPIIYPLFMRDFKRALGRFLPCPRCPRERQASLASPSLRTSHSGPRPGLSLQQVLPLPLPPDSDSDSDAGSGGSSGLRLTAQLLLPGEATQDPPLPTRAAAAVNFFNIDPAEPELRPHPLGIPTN

On to `O=C1NCC2CNCCN2c2ccc(NS(=O)(=O)c3ccccc3)cc21` (centres unmarked) [Example 48, N-(7-oxo-1,2,3,4,4a,5,6,7-octahydropyrazino[1,2-a][1,4]benzodiazepin-9-yl)benzenesulfonamide], for which the Ki stood at 27 µM in assay [1] and 0.045 µM at h-5-HT6 receptor.
